From US10428083B2, “Heterocyclylmethyl-thienouracile as antagonists of the adenosine-A2B-receptor” (BAYER PHARMA AKTIENGESELLSCHAFT, priority 2015, dated 2019)

Biological target: human adenosine A2b receptor (Homo sapiens (Human), UniProt P29275)
Test: Cellular in vitro reporter gene test for A2b receptor activity (CHO-K1, CRE-luciferase, NECA stimulation)
Type: cell-based
Conditions: recombinant CHO-K1 cell line, CRE-luciferase reporter, antagonism of EC50 concentration of NECA; in some cases means of several determinations, rounded to two significant figures; read-out: A2b receptor IC50
Summary of the method: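 CHO-K1 cells with CRE-driven luciferase; antagonists co-incubated with NECA at its EC50, determined in a pre-experiment on each test day. Luciferase read by luminescence 3 h after NECA addition.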

Sequence of human adenosine A2b receptor (P29275 whole entry): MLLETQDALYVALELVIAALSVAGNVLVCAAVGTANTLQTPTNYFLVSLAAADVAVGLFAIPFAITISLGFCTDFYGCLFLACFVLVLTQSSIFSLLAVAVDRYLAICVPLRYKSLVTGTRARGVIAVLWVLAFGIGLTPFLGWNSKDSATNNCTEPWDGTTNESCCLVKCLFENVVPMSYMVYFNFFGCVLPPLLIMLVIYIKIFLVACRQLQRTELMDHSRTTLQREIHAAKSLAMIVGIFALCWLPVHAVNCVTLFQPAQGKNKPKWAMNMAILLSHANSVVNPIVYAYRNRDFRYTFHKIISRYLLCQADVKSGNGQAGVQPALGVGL

SMILES	IC50
CCn1c(=O)c2c(C)c(CN3CCNC(=O)C3=O)sc2n(CC2CCCO2)c1=O (racemic) [Example 475, 6-[(2,3-Dioxopiperazin-1-yl)methyl]-3-ethyl-5-methyl-1-(tetrahydrofuran-2-ylmethyl)thieno[2,3-d]pyrimidine-2,4(1H,3H)-dione]	36 nM
Cc1c(CN2CCNC(=O)C2=O)sc2c1c(=O)n(C(C)C)c(=O)n2CC1CCCO1 (racemic) [Example 480, 6-[(2,3-Dioxopiperazin-1-yl)methyl]-3-isopropyl-5-methyl-1-(tetrahydrofuran-2-ylmethyl)thieno[2,3-d]pyrimidine-2,4(1H,3H)-dione]	35 nM
Cc1c(CN2CCNC(=O)C2=O)sc2c1c(=O)n(CC(C)(C)C)c(=O)n2CC1CCCO1 (racemic) [Example 483, 3-(2,2-Dimethylpropyl)-6-[(2,3-dioxopiperazin-1-yl)methyl]-5-methyl-1-(tetrahydrofuran-2-ylmethyl)thieno[2,3-d]pyrimidine-2,4(1H,3H)-dione]	45 nM
Cc1c(CN2CCNC(=O)C2=O)sc2c1c(=O)n(CC(F)(F)F)c(=O)n2CC1CCCO1 (racemic) [Example 487, 6-[(2,3-Dioxopiperazin-1-yl)methyl]-5-methyl-1-(tetrahydrofuran-2-ylmethyl)-3-(2,2,2-trifluoroethyl)thieno[2,3-d]pyrimidine-2,4(1H,3H)-dione]	250 nM
Cc1c(CN2CCNC(=O)C2=O)sc2c1c(=O)n(C(C)C(F)(F)F)c(=O)n2CCC(F)(F)F (racemic) [Example 490, 6-[(2,3-Dioxopiperazin-1-yl)methyl]-5-methyl-3-(1,1,1-trifluoropropan-2-yl)-1-(3,3,3-trifluoropropyl)thieno[2,3-d]pyrimidine-2,4(1H,3H)-dione]	19 nM
COCCn1c(=O)n(C(C)C(F)(F)F)c(=O)c2c(C)c(CN3CCNC(=O)C3=O)sc21 (racemic) [Example 491, 6-[(2,3-Dioxopiperazin-1-yl)methyl]-1-(2-methoxyethyl)-5-methyl-3-(1,1,1-trifluoropropan-2-yl)thieno[2,3-d]pyrimidine-2,4(1H,3H)-dione]	52 nM
COC(C)Cn1c(=O)c2c(C)c(CN3CCNC(=O)C3=O)sc2n(CCC(F)(F)F)c1=O (racemic) [Example 493, 6-[(2,3-Dioxopiperazin-1-yl)methyl]-3-(2-methoxypropyl)-5-methyl-1-(3,3,3-trifluoropropyl)thieno[2,3-d]pyrimidine-2,4(1H,3H)-dione]	11 nM
Cc1c(Cn2cc[nH]c2=O)sc2c1c(=O)n(CC(C)(C)C)c(=O)n2CC1CCCO1 (racemic) [Example 507, 3-(2,2-Dimethylpropyl)-5-methyl-6-[(2-oxo-2,3-dihydro-1H-imidazol-1-yl)methyl]-1-(tetrahydrofuran-2-ylmethyl)thieno[2,3-d]pyrimidine-2,4(1H,3H)-dione]	28 nM
CCn1c(=O)c2c(C)c(CN3CCNC3=NC(=O)OC)sc2n(CCOC)c1=O (single isomer, unassigned) [Example 118, Methyl [1-{[3-ethyl-1-(2-methoxyethyl)-5-methyl-2,4-dioxo-1,2,3,4-tetrahydrothieno[2,3-d]pyrimidin-6-yl]methyl}imidazolidin-2-ylidene]carbamate]	3.1 nM
CCn1c(=O)c2c(C)c(CN3CCNC3=NC(=O)OC)sc2n(CCOC)c1=O (single isomer, unassigned) [Example 119, Methyl [1-{[3-ethyl-1-(2-methoxyethyl)-5-methyl-2,4-dioxo-1,2,3,4-tetrahydrothieno[2,3-d]pyrimidin-6-yl]methyl}imidazolidin-2-ylidene]carbamate]	2.7 nM
CCn1c(=O)c2c(C)c(Cn3[nH]ccc3=O)sc2n(CC2CCCO2)c1=O (single isomer, unassigned) [Example 130, 3-Ethyl-5-methyl-6-[(5-oxo-2,5-dihydro-1H-pyrazol-1-yl)methyl]-1-(tetrahydrofuran-2-ylmethyl)thieno[2,3-d]pyrimidine-2,4(1H,3H)-dione]	30 nM
CCn1c(=O)c2c(C)c(Cn3[nH]ccc3=O)sc2n(CC2CCCO2)c1=O (single isomer, unassigned) [Example 131, 3-Ethyl-5-methyl-6-[(5-oxo-2,5-dihydro-1H-pyrazol-1-yl)methyl]-1-(tetrahydrofuran-2-ylmethyl)thieno[2,3-d]pyrimidine-2,4(1H,3H)-dione]	180 nM
Cc1c(Cn2[nH]ccc2=O)sc2c1c(=O)n(C(C)C)c(=O)n2CC1CCCO1 (single isomer, unassigned) [Example 135, 3-Isopropyl-5-methyl-6-[(5-oxo-2,5-dihydro-1H-pyrazol-1-yl)methyl]-1-(tetrahydrofuran-2-ylmethyl)thieno[2,3-d]pyrimidine-2,4(1H,3H)-dione]	46 nM
Cc1c(Cn2[nH]ccc2=O)sc2c1c(=O)n(C(C)C)c(=O)n2CC1CCCO1 (single isomer, unassigned) [Example 136, 3-Isopropyl-5-methyl-6-[(5-oxo-2,5-dihydro-1H-pyrazol-1-yl)methyl]-1-(tetrahydrofuran-2-ylmethyl)thieno[2,3-d]pyrimidine-2,4(1H,3H)-dione]	360 nM
CCn1c(=O)c2c(C)c(CN3CCNC3=S)sc2n(CC2CCCO2)c1=O (single isomer, unassigned) [Example 139, 3-Ethyl-5-methyl-1-(tetrahydrofuran-2-ylmethyl)-6-[(2-thioxoimidazolidin-1-yl)methyl]thieno[2,3-d]pyrimidine-2,4(1H,3H)-dione]	2.8 nM
CCn1c(=O)c2c(C)c(CN3CCNC3=S)sc2n(CC2CCCO2)c1=O (single isomer, unassigned) [Example 140, 3-Ethyl-5-methyl-1-(tetrahydrofuran-2-ylmethyl)-6-[(2-thioxoimidazolidin-1-yl)methyl]thieno[2,3-d]pyrimidine-2,4(1H,3H)-dione]	4.8 nM
CCn1c(=O)c2c(C)c(CN3CCNC3=S)sc2n(CC2CCCCO2)c1=O (single isomer, unassigned) [Example 141, 3-Ethyl-5-methyl-1-(tetrahydro-2H-pyran-2-ylmethyl)-6-[(2-thioxoimidazolidin-1-yl)methyl]thieno[2,3-d]pyrimidine-2,4(1H,3H)-dione]	120 nM
CCn1c(=O)c2c(C)c(CN3CCNC3=S)sc2n(CC2CCCCO2)c1=O (single isomer, unassigned) [Example 142, 3-Ethyl-5-methyl-1-(tetrahydro-2H-pyran-2-ylmethyl)-6-[(2-thioxoimidazolidin-1-yl)methyl]thieno[2,3-d]pyrimidine-2,4(1H,3H)-dione]	13 nM
Cc1c(CN2CCNC2=S)sc2c1c(=O)n(CC(C)C)c(=O)n2CC1CCO1 (single isomer, unassigned) [Example 147, 3-Isobutyl-5-methyl-1-(oxetan-2-ylmethyl)-6-[(2-thioxoimidazolidin-1-yl)methyl]thieno[2,3-d]pyrimidine-2,4(1H,3H)-dione]	22 nM
Cc1c(CN2CCNC2=S)sc2c1c(=O)n(CC(C)C)c(=O)n2CC1CCO1 (single isomer, unassigned) [Example 148, 3-Isobutyl-5-methyl-1-(oxetan-2-ylmethyl)-6-[(2-thioxoimidazolidin-1-yl)methyl]thieno[2,3-d]pyrimidine-2,4(1H,3H)-dione]	4.1 nM
Cc1c(CN2CCNC2=S)sc2c1c(=O)n(CC(F)(F)F)c(=O)n2CC1CCO1 (single isomer, unassigned) [Example 155, 5-Methyl-1-(oxetan-2-ylmethyl)-6-[(2-thioxoimidazolidin-1-yl)methyl]-3-(2,2,2-trifluoroethyl)thieno[2,3-d]pyrimidine-2,4(1H,3H)-dione]	26 nM
Cc1c(CN2CCNC2=S)sc2c1c(=O)n(CC(F)(F)F)c(=O)n2CC1CCO1 (single isomer, unassigned) [Example 156, 5-Methyl-1-(oxetan-2-ylmethyl)-6-[(2-thioxoimidazolidin-1-yl)methyl]-3-(2,2,2-trifluoroethyl)thieno[2,3-d]pyrimidine-2,4(1H,3H)-dione]	5.7 nM
Cc1c(CN2CCNC2=S)sc2c1c(=O)n(CC(F)F)c(=O)n2CC1CCCO1 (single isomer, unassigned) [Example 163, 3-(2,2-Difluoroethyl)-5-methyl-1-(tetrahydrofuran-2-ylmethyl)-6-[(2-thioxoimidazolidin-1-yl)methyl]thieno[2,3-d]pyrimidine-2,4(1H,3H)-dione]	5.2 nM
Cc1c(CN2CCNC2=S)sc2c1c(=O)n(CC(F)F)c(=O)n2CC1CCCO1 (single isomer, unassigned) [Example 164, 3-(2,2-Difluoroethyl)-5-methyl-1-(tetrahydrofuran-2-ylmethyl)-6-[(2-thioxoimidazolidin-1-yl)methyl]thieno[2,3-d]pyrimidine-2,4(1H,3H)-dione]	17 nM
CCn1c(=O)c2c(C)c(CN3CCNC3=O)sc2n(CC2CCCCO2)c1=O (single isomer, unassigned) [Example 179, 3-Ethyl-5-methyl-6-[(2-oxoimidazolidin-1-yl)methyl]-1-(tetrahydro-2H-pyran-2-ylmethyl)thieno[2,3-d]pyrimidine-2,4(1H,3H)-dione]	200 nM
CCn1c(=O)c2c(C)c(CN3CCNC3=O)sc2n(CC2CCCCO2)c1=O (single isomer, unassigned) [Example 180, 3-Ethyl-5-methyl-6-[(2-oxoimidazolidin-1-yl)methyl]-1-(tetrahydro-2H-pyran-2-ylmethyl)thieno[2,3-d]pyrimidine-2,4(1H,3H)-dione]	30 nM
Cc1c(CN2CCNC2=O)sc2c1c(=O)n(C(C)C)c(=O)n2CC1CCO1 (single isomer, unassigned) [Example 184, 3-Isopropyl-5-methyl-1-(oxetan-2-ylmethyl)-6-[(2-oxoimidazolidin-1-yl)methyl]thieno[2,3-d]pyrimidine-2,4(1H,3H)-dione]	7 nM
Cc1c(CN2CCNC2=O)sc2c1c(=O)n(C(C)C)c(=O)n2CC1CCO1 (single isomer, unassigned) [Example 185, 3-Isopropyl-5-methyl-1-(oxetan-2-ylmethyl)-6-[(2-oxoimidazolidin-1-yl)methyl]thieno[2,3-d]pyrimidine-2,4(1H,3H)-dione]	60 nM
